Literature values, collected in patent US20020004528A1, “Method for the treatment of insomnia” (priority 1998, published 2002).

Conditions: one study mentioned in U.S. Pat. No. 5,510,381 (use of gabapentin to treat mania)

1-(aminomethyl)-cyclohexane acetic acid [gabapentin]
effect on delta-wave (deep) sleep: enhance delta-wave (deep) sleep
